Assay results from PMC12345137 (mBio, 2025).
“And” between values parts separate entries of the source, which are not always exact repeats. Equal values may be shown once. Read-outs that look alike come from different tables or passages of the source. Positions of bridges follow the written chain, without caps; N, C: chain ends. Residues, ends and D or L forms follow the SMILES beside them.

Experiments:
SA AgrC-I = SA AgrC-I (Staphylococcus aureus, UniProt O07911); conditions: 100 nM cognate AIP; ± SEM; -b = no inhibition recorded at the highest AIP concentration tested; determined previously; ref (1); read-out: IC50, SA AgrC-I, b-lactamase assay; cited from earlier work
Chain of SA AgrC-I (O07911 entry or part of it): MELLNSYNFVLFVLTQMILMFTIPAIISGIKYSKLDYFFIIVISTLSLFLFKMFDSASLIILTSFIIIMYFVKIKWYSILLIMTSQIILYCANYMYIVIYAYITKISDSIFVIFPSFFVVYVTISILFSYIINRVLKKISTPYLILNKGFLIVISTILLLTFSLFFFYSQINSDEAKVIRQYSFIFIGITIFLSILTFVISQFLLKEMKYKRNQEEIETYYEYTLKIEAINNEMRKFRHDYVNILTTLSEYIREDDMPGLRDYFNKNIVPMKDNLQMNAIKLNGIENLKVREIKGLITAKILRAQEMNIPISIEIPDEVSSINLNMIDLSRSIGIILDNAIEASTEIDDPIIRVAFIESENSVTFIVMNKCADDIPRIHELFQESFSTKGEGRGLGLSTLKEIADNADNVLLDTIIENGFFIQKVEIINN

S. aureus (SA) agr-I [1] = conditions: b-lactamase, cited from earlier work
S. aureus (SA) agr-IV [2] = conditions: b-lactamase; ref (4); cited from earlier work
S. aureus (SA) agr-I [3] = system: S. aureus (SA) agr-I; set-up: method as in ref (5) (a number printed in a supplementary file, which may have a reference list of its own: not looked up in the article's list); conditions: hemolysis; ref (5); cited from earlier work
S. aureus (SA) agr-I [4] = conditions: fluorescence; ref (5); cited from earlier work
SA AgrC-IV [5] = target: T1, SA AgrC-IV (Staphylococcus aureus, UniProt Q309Z2); conditions: 100 nM cognate AIP; ± SEM; -b = no inhibition recorded at the highest AIP concentration tested; determined previously; ref (1); read-out: IC50, SA AgrC-IV, b-lactamase assay; cited from earlier work
T1 sequence (Q309Z2 entry or part of it): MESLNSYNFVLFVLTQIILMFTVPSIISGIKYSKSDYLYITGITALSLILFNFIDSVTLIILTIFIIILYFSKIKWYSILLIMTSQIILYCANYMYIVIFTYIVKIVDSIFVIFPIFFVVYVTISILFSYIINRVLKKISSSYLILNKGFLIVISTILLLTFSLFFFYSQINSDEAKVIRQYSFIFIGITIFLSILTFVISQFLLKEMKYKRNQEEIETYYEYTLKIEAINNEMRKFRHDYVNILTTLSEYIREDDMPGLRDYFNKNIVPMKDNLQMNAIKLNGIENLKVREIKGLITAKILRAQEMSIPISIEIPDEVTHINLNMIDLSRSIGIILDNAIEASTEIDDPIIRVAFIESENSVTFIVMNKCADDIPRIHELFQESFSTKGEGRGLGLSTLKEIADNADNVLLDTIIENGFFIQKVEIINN

[6] = system: S. epidermidis (SE) agr-I; set-up: method as in ref (9) (a number printed in a supplementary file, which may have a reference list of its own: not looked up in the article's list); conditions: HPLC d-toxin, ref (9); cited from earlier work
SA AgrC-II [7] = target: T2, SA AgrC-II (Staphylococcus aureus, UniProt O33587); conditions: ± SEM, determined previously, ref (1), cited from earlier work
T2 sequence (O33587 entry or part of it): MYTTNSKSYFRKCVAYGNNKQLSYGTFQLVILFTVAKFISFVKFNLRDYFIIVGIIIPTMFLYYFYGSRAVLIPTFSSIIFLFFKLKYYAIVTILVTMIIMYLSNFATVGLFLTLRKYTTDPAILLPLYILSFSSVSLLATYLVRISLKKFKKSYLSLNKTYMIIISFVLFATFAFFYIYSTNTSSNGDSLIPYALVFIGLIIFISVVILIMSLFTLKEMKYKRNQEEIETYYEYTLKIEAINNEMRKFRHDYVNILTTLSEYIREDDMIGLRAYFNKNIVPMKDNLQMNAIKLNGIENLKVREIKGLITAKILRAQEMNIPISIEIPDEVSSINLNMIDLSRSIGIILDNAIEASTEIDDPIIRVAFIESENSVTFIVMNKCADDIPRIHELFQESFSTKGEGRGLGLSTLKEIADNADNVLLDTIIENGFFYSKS

[8] = system: S. epidermidis (SE) agr-I; conditions: fluorescence, cited from earlier work
S. aureus (SA) agr-III [9] = conditions: b-lactamase, cited from earlier work
SA AgrC-III [10] = target: T3, SA AgrC-III (Staphylococcus aureus, UniProt O33590); conditions: ± SEM, determined previously, ref (1), cited from earlier work
T3 sequence (O33590 entry or part of it): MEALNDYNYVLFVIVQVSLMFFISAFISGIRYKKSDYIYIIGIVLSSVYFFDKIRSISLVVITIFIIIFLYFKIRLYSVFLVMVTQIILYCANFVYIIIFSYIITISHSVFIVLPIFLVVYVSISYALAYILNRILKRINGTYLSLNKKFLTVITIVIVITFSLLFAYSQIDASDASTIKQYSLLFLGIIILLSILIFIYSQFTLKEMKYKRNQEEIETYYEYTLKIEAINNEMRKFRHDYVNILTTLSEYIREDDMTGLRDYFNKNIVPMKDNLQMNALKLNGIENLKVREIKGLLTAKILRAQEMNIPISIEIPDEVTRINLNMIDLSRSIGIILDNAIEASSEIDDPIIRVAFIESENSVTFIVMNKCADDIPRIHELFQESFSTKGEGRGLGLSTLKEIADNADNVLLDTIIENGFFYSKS

S. aureus (SA) agr-IV [11] = system: S. aureus (SA) agr-IV; set-up: method as in ref (5) (a number printed in a supplementary file, which may have a reference list of its own: not looked up in the article's list); conditions: hemolysis; ref (5); cited from earlier work
S. aureus (SA) agr-II [12] = conditions: b-lactamase, cited from earlier work
S. aureus (SA) agr-II [13] = system: S. aureus (SA) agr-II; set-up: method as in ref (5) (a number printed in a supplementary file, which may have a reference list of its own: not looked up in the article's list); conditions: hemolysis; ref (5); cited from earlier work
S. aureus (SA) agr-III [14] = conditions: fluorescence, cited from earlier work
S. aureus (SA) agr-IV [15] = conditions: fluorescence, cited from earlier work
[16] = system: S. epidermidis (SE) agr-II; conditions: fluorescence; from supernatant; ref (18); cited from earlier work
[17] = system: S. epidermidis (SE) agr-III; conditions: fluorescence; from supernatant; ref (18); cited from earlier work
SA AgrC-II [18] = target: T2, SA AgrC-II; test: β-Lactamase assay, reporter strain RN10829 (P2-agrA:P3-blaZ) with pagrC-II; type: cell-based; conditions: 100 nM cognate AIP; ± SEM; -b = no inhibition recorded at the highest AIP concentration tested; -a = only partial inhibition observed; this study (curves in Fig. S20)
In short: (§1)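 S. aureus RN10829 P2-agrA:P3-blaZ reporter carrying a plasmid for the matching wild-type AgrC, grown in TSB to OD600 0.35–0.40. Cells met peptides (10 μM–10 pM) plus cognate AIP at 100 nM for 1 h at 37°C, then nitrocefin (33.3 μg/mL) turnover was read at OD486 for 10 min; IC50 from linear rates.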

S. aureus (SA) agr-II [19] = system: S. aureus (SA) agr-II; set-up: method as in ref (9) (a number printed in a supplementary file, which may have a reference list of its own: not looked up in the article's list); conditions: HPLC d-toxin; ref (9); cited from earlier work
S. aureus agr-IV = S. aureus agr-IV (Staphylococcus aureus, UniProt Q309Z2); test: cell-based; type: cell-based; conditions: fluorescent reporter strain; peptides tested at 1000, 50, 2.5, 0.125 nM or in dose-response
Chain of S. aureus agr-IV (Q309Z2 entry or part of it): as the sequence (Q309Z2 entry or part of it) above
In short: (§2)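 Staphylococcal agr reporters were grown with peptide for 22–24 h at 37°C. Background-corrected fluorescence per OD600 was expressed as a percentage of untreated control, and IC50 was obtained by variable-slope regression.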

S. epidermidis agr-III = S. epidermidis agr-III (Staphylococcus epidermidis, UniProt Q8VSX2); test: cell-based; type: cell-based
Chain of S. epidermidis agr-III (Q8VSX2 entry or part of it): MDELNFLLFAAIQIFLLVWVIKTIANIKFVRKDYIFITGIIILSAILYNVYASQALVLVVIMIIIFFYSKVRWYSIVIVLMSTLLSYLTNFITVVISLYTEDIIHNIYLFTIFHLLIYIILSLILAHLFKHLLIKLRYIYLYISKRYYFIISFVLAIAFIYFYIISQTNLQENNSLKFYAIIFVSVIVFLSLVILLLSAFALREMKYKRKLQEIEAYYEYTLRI
In short: as §2

S. lugdunensis agr-I = S. lugdunensis agr-I (Staphylococcus lugdunensis, UniProt Q8VSW5); test: cell-based; conditions: fluorescent reporter strain; peptides tested at 1000, 50, 2.5, 0.125 nM or in dose-response
Chain of S. lugdunensis agr-I (Q8VSW5 entry or part of it): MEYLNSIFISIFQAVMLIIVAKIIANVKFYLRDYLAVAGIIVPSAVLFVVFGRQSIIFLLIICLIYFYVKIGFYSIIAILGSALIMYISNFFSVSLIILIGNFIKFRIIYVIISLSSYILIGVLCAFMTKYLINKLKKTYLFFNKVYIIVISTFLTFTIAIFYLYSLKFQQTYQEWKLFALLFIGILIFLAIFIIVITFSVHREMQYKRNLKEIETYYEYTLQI
In short: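 37°C, 1,000 rpm, 22–24 h in TSB + CAM or ERM (10 μg/mL); 1:5 serial peptide dilutions from 1 mM DMSO stocks; fluorescence (GFP ex 479/em 520, YFP ex 500/em 541) minus blank, ÷OD600, % of untreated control; IC50 by variable-slope fit.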

S. aureus agr-II = S. aureus agr-II (Staphylococcus aureus, UniProt O33587); test: cell-based
Chain of S. aureus agr-II (O33587 entry or part of it): as the sequence (O33587 entry or part of it) above
In short: as §2

SA AgrC-IV [20] = target: T1, SA AgrC-IV; test: β-Lactamase assay, reporter strain RN10829 (P2-agrA:P3-blaZ) with pagrC-IV; type: cell-based; conditions: 100 nM cognate AIP; ± SEM; -b = no inhibition recorded at the highest AIP concentration tested; -a = only partial inhibition observed; this study (curves in Fig. S22)
In short: as §1

S. aureus (SA) agr-IV [21] = system: S. aureus (SA) agr-IV; set-up: method as in ref (9) (a number printed in a supplementary file, which may have a reference list of its own: not looked up in the article's list); conditions: HPLC d-toxin, ref (9); cited from earlier work
S. aureus (SA) agr-III [22] = system: S. aureus (SA) agr-III; set-up: method as in ref (9) (a number printed in a supplementary file, which may have a reference list of its own: not looked up in the article's list); conditions: HPLC d-toxin; ref (9); cited from earlier work
SA AgrC-III [23] = target: T3, SA AgrC-III; test: β-Lactamase assay, reporter strain RN10829 (P2-agrA:P3-blaZ) with pagrC-III; type: cell-based
In short: as §1

S. aureus (SA) agr-I [24] = system: S. aureus (SA) agr-I; set-up: method as in ref (9) (a number printed in a supplementary file, which may have a reference list of its own: not looked up in the article's list); conditions: HPLC d-toxin; ref (9); cited from earlier work
S. aureus (SA) agr-II [25] = conditions: fluorescence; ref (10); cited from earlier work
S. aureus (SA) agr-III [26] = system: S. aureus (SA) agr-III; set-up: method as in ref (5) (a number printed in a supplementary file, which may have a reference list of its own: not looked up in the article's list); conditions: hemolysis; ref (5); cited from earlier work

Molecule: S. aureus AIP-III [compound 3]
- IC50 (SA AgrC-I): 120 ± 15 nM
- IC50 (S. aureus (SA) agr-I [1]; ref (4)): 70 nM
- IC50 (S. aureus (SA) agr-I [1]; ref (8)): 8 ± 1.1 nM
- IC50 (S. aureus (SA) agr-IV [2]): 150 nM
- IC50 (S. aureus (SA) agr-I [3]): 8.07 nM
- IC50 (S. aureus (SA) agr-I [4]): 5.05 nM
- IC50 (SA AgrC-IV [5]): > 1000 nM
- inhibition at 1000 nM, SE agr-I [6]: no inhibition
- IC50 (SA AgrC-II [7]; 100 nM cognate AIP, -b = no inhibition recorded at the highest AIP concentration tested, read-out: IC50, SA AgrC-II, b-lactamase assay): 150 ± 63 nM
- inhibition at 1000 nM, SE agr-I ([8]; at 1000 nM, ref (11)): no inhibition
- EC50 (S. aureus (SA) agr-III [9]; ref (4)): 26 nM
- EC50 (S. aureus (SA) agr-III [9]; ref (7)): 406 nM
- EC50 (SA AgrC-III [10]; read-out: EC50, SA AgrC-III, b-lactamase assay): 11 ± 1 nM
- IC50 (S. aureus (SA) agr-IV [11]): 23.8 nM
- IC50 (S. aureus (SA) agr-II [12]; ref (4)): 6 nM
- IC50 (S. aureus (SA) agr-II [13]): 0.46 nM

Molecule: CC(C)[C@H](NC(=O)[C@H](CO)NC(=O)[C@@H](N)CC(=O)O)C(=O)N[C@H]1CSC(=O)[C@H](Cc2ccccc2)NC(=O)[C@H](Cc2ccc(O)cc2)NC(=O)[C@H](CO)NC(=O)[C@H](C)NC1=O [compound 5, S. epidermidis AIP-I] (H-DSVCASYF; thioester 4-C)
- IC50 (S. aureus (SA) agr-III [14]; ref (10)): 13 nM
- IC50 (S. aureus (SA) agr-IV [15]; ref (10)): > 1000 nM
- effect from supernatant (% inhibition, activation or no effect), SE agr-II [16]: ~ 90%
- effect from supernatant (% inhibition, activation or no effect), SE agr-III [17]: ~ 90%
- IC50, SA AgrC-II, b-lactamase assay (SA AgrC-II [18]): -b
- IC50 (S. aureus (SA) agr-II [19]): 30 to 40 nM
- QS interaction in words (inhibition / activation), S. aureus agr-IV (S. aureus agr-IV): no effect at 1000 nM
- IC50 (S. epidermidis agr-III): 8.6 ± 0.7 nM
- QS interaction in words (inhibition / activation), S. lugdunensis agr-I (S. lugdunensis agr-I): no effect at 1000 nM
- IC50 (S. aureus agr-II): 858 nM
- effect from supernatant (% inhibition, activation or no effect), SE agr-I ([8]; from supernatant, ref (18)): activation
- EC50 ([8]; ref (11)): 196 nM
- IC50, SA AgrC-IV, b-lactamase assay (SA AgrC-IV [20]): -b
- inhibition at 1000 nM, SA agr-IV (S. aureus (SA) agr-IV [21]): no inhibition
- IC50 (S. aureus (SA) agr-III [22]): ~10 nM
- IC50 (SA AgrC-III [23]): > 1000 nM
- IC50 (S. aureus (SA) agr-I [24]): ~250 nM
- IC50 (S. aureus (SA) agr-II [25]): > 1000 nM

Molecule: S. aureus AIP-II [compound 2]
- IC50 (SA AgrC-I): 110 ± 12 nM
- IC50 (S. aureus (SA) agr-III [14]; ref (5)): 0.53 nM
- IC50 (S. aureus (SA) agr-IV [15]; ref (5)): 0.4 nM
- IC50 (S. aureus (SA) agr-I [1]; ref (2)): 2.9 ± 1.2 nM
- IC50 (S. aureus (SA) agr-I [1]; ref (3)): 90 nM and 78 nM
- IC50 (S. aureus (SA) agr-I [1]; ref (4)): 40 nM
- IC50 (S. aureus (SA) agr-I [1]; ref (8)): 12 ± 2.9 nM
- IC50 (S. aureus (SA) agr-IV [2]): 86 nM
- IC50 (S. aureus (SA) agr-I [3]): 0.89 nM
- IC50 (S. aureus (SA) agr-I [4]): 1.62 nM
- IC50 (S. aureus (SA) agr-III [26]): 3.59 nM
- IC50 (SA AgrC-IV [5]): 230 ± 19 nM
- inhibition at 1000 nM, SE agr-I [6]: no inhibition
- EC50 (SA AgrC-II [7]; read-out: EC50, SA AgrC-II, b-lactamase assay): 3.7 ± 0.5 nM
- IC50 ([8]; ref (11)): 62.9 nM
- IC50 (S. aureus (SA) agr-III [9]; ref (2)): 3.2 ± 1.3 nM
- IC50 (S. aureus (SA) agr-III [9]; ref (4)): 1 nM
- IC50 (SA AgrC-III [10]; 100 nM cognate AIP, -b = no inhibition recorded at the highest AIP concentration tested, read-out: IC50, SA AgrC-III, b-lactamase assay): 40 ± 15 nM
- IC50 (S. aureus (SA) agr-IV [11]): 1.19 nM
- EC50 (S. aureus (SA) agr-II [12]; ref (3)): 34 nM and 28 nM
- EC50 (S. aureus (SA) agr-II [12]; ref (4)): 30 nM
- EC50 (S. aureus (SA) agr-II [12]; ref (7)): 40.9 nM
